Data as given in patent US8389564B2, “Proteasome inhibitors” (priority 2008, dated 2013).
Where two headings read alike, the source gives them in different places.

Tests used:
RPMI 8226 = experiment: Cytotoxicity in RPMI 8226; conditions: Homo sapiens, RPMI-8226, read-out: Cytotoxicity in RPMI 8226 Average IC50 ± SD (nM)
Protocol: B16-F10 (ATCC; CRL-6475), DU 145 (ATCC; HTB-81), HEK293 (ATCC; CRL-1573), HT-29 (ATCC; HTB-38), LoVo (ATCC; CCL-229), MDA-MB-231 (ATCC; HTB-26), MIA PaCa-2 (ATCC; CRL-1420), NCI-H292 (ATCC; CRL-1848), OVCAR-3 (ATCC, HTB-161), PANC-1 (ATCC; CRL-1469), PC-3 (ATCC; CRL-1435), RPMI 8226 (ATCC; CCL-155) and U266 (ATCC; TIB-196) are maintained in appropriate culture media. The cells are cultured in an incubator at 37° C. in 5% CO2 and 95% humidified air.
20 mM stock solutions of the test compound are prepared in 100% DMSO, aliquoted and stored at −80° C. […] The plates are returned to the incubator for 48 hours. The final concentration of DMSO is 0.25% in all samples.
Following 48 hours of drug exposure, 10 μl of 0.2 mg/ml resazurin (obtained from Sigma-Aldrich Chemical Co.) in Mg^2+, Ca^2+ free phosphate buffered saline are added to each well and the plates are returned to the incubator for 3-6 hours. Since living cells metabolize Resazurin, the fluorescence of the reduction product of Resazurin is measured using a Fusion microplate fluorometer (Packard Bioscience) with λex=535 nm and λem=590 nm filters. Resazurin dye in medium without cells is used to determine the background, which was subtracted from the data for all experimental wells.

[1] = target: T1, chymotrypsin-like activity of the 20S proteasome (Oryctolagus cuniculus, UniProt G1T4Q9); experiment: In vitro purified rabbit muscle 20S proteasome assay, chymotrypsin-like (CT-L) activity, Suc-LLVY-AMC substrate; type: biochemical
T1 construct: In Vitro Purified Rabbit Muscle 20S Proteasome Activity Assays; from tissue; host or cells: rabbit muscle
T1 sequence (G1T4Q9 1-263): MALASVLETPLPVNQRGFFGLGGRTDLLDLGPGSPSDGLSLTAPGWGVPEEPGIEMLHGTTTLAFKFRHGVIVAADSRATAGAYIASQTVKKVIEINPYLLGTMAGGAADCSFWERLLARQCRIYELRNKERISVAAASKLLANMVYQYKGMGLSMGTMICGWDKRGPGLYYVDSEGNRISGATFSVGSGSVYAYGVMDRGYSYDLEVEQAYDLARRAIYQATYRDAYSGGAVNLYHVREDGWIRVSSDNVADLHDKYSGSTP
Protocol: (§1) Serial diluted test compounds were added in duplicate to 1 μg/ml purified rabbit 20S proteasome in assay buffer containing 20 mM HEPES, pH7.3, 0.5 mM EDTA, 0.05% Triton X-100 and 0.035% SDS and pre-incubated for 5 min at 37° C. Reactions were initiated by the addition of the Suc-LLVY-AMC peptide substrate at a final concentration of 20 μM. Fluorescence of the cleaved peptide substrate was measured at λex=390 nm and λem=460 nm using a Fluoroskan Ascent 96-well microplate reader (Thermo Electron, Waltham, Mass.). […] The caspase-like activity of the 20S proteasome was determined as described above except that Z-LLEAMC was used as the peptide substrate. For the evaluation of the trypsin-like activity, the SDS was omitted from the assay buffer and Boc-LRR-AMC was used as the peptide substrate.

[2] = target: T2, caspase-like activity of the 20S proteasome (Oryctolagus cuniculus, UniProt A0A5F9DQW2); experiment: In vitro purified rabbit muscle 20S proteasome assay, caspase-like (C-L) activity, Z-LLEAMC substrate; type: biochemical
T2 construct: In Vitro Purified Rabbit Muscle 20S Proteasome Activity Assays; from tissue; host or cells: rabbit muscle
T2 sequence (A0A5F9DQW2 1-212): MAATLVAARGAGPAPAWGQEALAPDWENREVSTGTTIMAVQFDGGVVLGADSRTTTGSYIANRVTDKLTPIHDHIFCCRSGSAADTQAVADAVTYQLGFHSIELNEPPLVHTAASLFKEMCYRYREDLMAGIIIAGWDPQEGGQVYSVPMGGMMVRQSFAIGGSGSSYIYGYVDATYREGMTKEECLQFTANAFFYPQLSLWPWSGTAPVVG
Protocol: as §1

[3] = target: T3, trypsin-like activity of the 20S proteasome (Oryctolagus cuniculus, UniProt G1SWK8); experiment: In vitro purified rabbit muscle 20S proteasome assay, trypsin-like (T-L) activity, Boc-LRR-AMC substrate; type: biochemical
T3 construct: In Vitro Purified Rabbit Muscle 20S Proteasome Activity Assays; from tissue; host or cells: rabbit muscle
T3 sequence (G1SWK8 1-271): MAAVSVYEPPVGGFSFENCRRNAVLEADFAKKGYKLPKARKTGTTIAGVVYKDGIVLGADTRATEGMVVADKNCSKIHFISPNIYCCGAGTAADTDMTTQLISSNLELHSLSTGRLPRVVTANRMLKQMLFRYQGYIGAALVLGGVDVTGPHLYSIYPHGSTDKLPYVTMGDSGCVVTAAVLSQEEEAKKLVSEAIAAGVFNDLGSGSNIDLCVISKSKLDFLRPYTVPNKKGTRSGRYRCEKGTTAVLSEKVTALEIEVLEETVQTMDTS
Protocol: as §1

[4] = rabbit 20S proteasome, mean ± SD of 3 or more experiments, read-out: CT-L IC50
[5] = rabbit 20S proteasome, mean ± SD of 3 or more experiments, read-out: C-L IC50
[6] = rabbit 20S proteasome, mean ± SD of 3 or more experiments, read-out: T-L IC50

| SMILES | IC50 (RPMI 8226) [nM] | IC50 [1] [nM] | IC50 [2] [nM] | IC50 [3] [nM] | IC50 [1, 4] [nM] | IC50 [2, 5] [nM] | IC50 [3, 6] [nM] |
| --- | --- | --- | --- | --- | --- | --- | --- |
| C[C@@]12OC(=O)[C@]1([C@@H](O)[C@@H]1C=CCCC1)NC(=O)[C@@H]2CCOS(=O)(=O)c1ccc(Oc2ccccc2)cc1 | 78 ± 25 | 3.2 ± 0.2 | 85 ± 9 | 14 ± 1 | – | – | – |
| C[C@@]12OC(=O)[C@]1([C@@H](O)[C@@H]1C=CCCC1)NC(=O)[C@@H]2CCBr [CH2CH2Br] | 7.8 ± 1.4 | – | – | – | 2.6 ± 0.4 | 290 ± 60 | 14 ± 2 |
| CC(=O)OCC[C@H]1C(=O)N[C@@]2([C@@H](O)[C@@H]3C=CCCC3)C(=O)O[C@@]12C [CH2CH2OC(O)CH3] | 20000 | 9.1 ± 0.3 | 971 ± 56 | 745 ± 40 | – | – | – |
| C[C@@]12OC(=O)[C@]1([C@@H](O)[C@@H]1C=CCCC1)NC(=O)[C@@H]2CCF [CH2CH2F] | 875 ± 430 | – | – | – | 10 ± 0.7 | 781 ± 47 | 525 ± 15 |
| Cc1ccc(S(=O)(=O)OCC[C@H]2C(=O)N[C@@]3([C@@H](O)[C@@H]4C=CCCC4)C(=O)O[C@@]23C)cc1 [CH2CH2OTs] | 27 ± 8.5 | 2.5 ± 0.4 | 127 ± 5 | 9.9 ± 0.2 | – | – | – |
| C[C@@]12OC(=O)[C@]1([C@@H](O)[C@@H]1C=CCCC1)NC(=O)[C@@H]2CCO [CH2CH2OH] | 38000 | – | – | – | 14 ± 1.5 | 1200 ± 57 | 1200 ± 150 |
| C[C@@]12OC(=O)[C@]1([C@@H](O)[C@@H]1C=CCCC1)NC(=O)[C@@H]2CCCl [CH2CH2Cl, Salinosporamide A, reference compound] | 9.8 ± 3 | – | – | – | – | – | – |
| C[C@H]1C(=O)N[C@@]2([C@@H](O)[C@@H]3C=CCCC3)C(=O)O[C@@]12C [CH3] | 6300 | – | – | – | 7.5 ± 0.6 | 460 ± 49 | 370 ± 44 |
| C[C@@]12OC(=O)[C@]1([C@@H](O)[C@@H]1C=CCCC1)NC(=O)[C@@H]2CCOC(=O)c1ccc(-c2ccccc2)cc1 | 290 ± 108 | 9 ± 2 | 160 ± 9 | 52 ± 5 | – | – | – |
| C[C@@]12OC(=O)[C@]1([C@@H](O)[C@@H]1C=CCCC1)NC(=O)[C@@H]2CCOS(C)(=O)=O [CH2CH2OMs] | 144 ± 46 | 4.3 ± 0.8 | 873 ± 32 | 65 ± 8 | – | – | – |
| CC[C@H]1C(=O)N[C@@]2([C@@H](O)[C@@H]3C=CCCC3)C(=O)O[C@@]12C [CH2CH3] | 6300 | – | – | – | – | – | 610 ± 35 |
| CN(C)c1cccc2c(S(=O)(=O)OCC[C@H]3C(=O)N[C@@]4([C@@H](O)[C@@H]5C=CCCC5)C(=O)O[C@@]34C)cccc12 [CH2CH2ODs] | 30 ± 6 | 3 ± 0.5 | 90 ± 11 | 12 ± 2.3 | – | – | – |
| CCC[C@H]1C(=O)N[C@@]2([C@@H](O)[C@@H]3C=CCCC3)C(=O)O[C@@]12C [CH2CH2CH3] | 6300 | – | – | – | 24 ± 5 | 1200 ± 200 | 1100 ± 200 |
| C[C@@]12OC(=O)[C@]1([C@@H](O)[C@@H]1C=CCCC1)NC(=O)[C@@H]2CCI [CH2CH2I] | 6.9 ± 0.9 | – | – | – | 2.8 ± 0.5 | 410 ± 230 | 13 ± 3 |
| CC(C)(C)c1ccc(S(=O)(=O)OCC[C@H]2C(=O)N[C@@]3([C@@H](O)[C@@H]4C=CCCC4)C(=O)O[C@@]23C)cc1 | 94 ± 18 | 3.2 ± 0.4 | 180 ± 4 | 31 ± 1 | – | – | – |
| C[C@@]12OC(=O)[C@]1([C@@H](O)[C@@H]1C=CCCC1)NC(=O)[C@@H]2CCOS(=O)(=O)c1ccc(-c2ccccc2)cc1 | 43 ± 12 | 3.8 ± 0.1 | 101 ± 11 | 15 ± 1 | – | – | – |
